Measured values reported in article PMC5698089 (Archives of biochemistry and biophysics, 2017).

Target: T1, SR-B2 (Scavenger receptor class B protein 2) (Homo sapiens, UniProt Q14108)
T1 sequence (Q14108 1-478): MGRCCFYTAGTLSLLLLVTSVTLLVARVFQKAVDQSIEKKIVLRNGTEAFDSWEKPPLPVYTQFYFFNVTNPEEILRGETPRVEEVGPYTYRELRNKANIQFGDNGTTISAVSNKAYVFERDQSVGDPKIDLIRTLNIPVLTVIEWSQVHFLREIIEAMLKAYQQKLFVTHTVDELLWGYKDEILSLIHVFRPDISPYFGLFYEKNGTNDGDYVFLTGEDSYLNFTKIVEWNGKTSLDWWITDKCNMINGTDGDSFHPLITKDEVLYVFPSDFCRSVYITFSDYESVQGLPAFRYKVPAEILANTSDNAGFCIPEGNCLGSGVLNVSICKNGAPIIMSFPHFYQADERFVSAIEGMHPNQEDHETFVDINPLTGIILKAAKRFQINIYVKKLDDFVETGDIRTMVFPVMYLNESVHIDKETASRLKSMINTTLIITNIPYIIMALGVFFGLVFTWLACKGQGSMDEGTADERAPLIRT
Assay: surface plasmon resonance, immobilized protein, […] model
Format: binding

Kd [nM]	Structure (SMILES)
2510 ± 40	CC1=C[C@H](O)CC(C)(C)[C@H]1/C=C/C(C)=C/C=C/C(C)=C/C=C/C=C(C)/C=C/C=C(C)/C=C/C1=C(C)C[C@@H](O)CC1(C)C [lutein]
1530 ± 40	CC1=C(/C=C/C(C)=C/C=C/C(C)=C/C=C/C=C(C)/C=C/C=C(C)/C=C/C2=C(C)C[C@@H](O)CC2(C)C)C(C)(C)C[C@H](O)C1 [zeaxanthin]
3900 ± 40	CC1=C(/C=C/C(C)=C/C=C/C(C)=C/C=C/C=C(C)/C=C/C=C(C)/C=C/C2=C(C)C[C@H](O)CC2(C)C)C(C)(C)C[C@H](O)C1 [meso-zeaxanthin]

Target: T2, SR-B1 (Scavenger receptor class B protein 1) (Homo sapiens, UniProt Q8WTV0)
T2 sequence (Q8WTV0 33-443 limits assumed): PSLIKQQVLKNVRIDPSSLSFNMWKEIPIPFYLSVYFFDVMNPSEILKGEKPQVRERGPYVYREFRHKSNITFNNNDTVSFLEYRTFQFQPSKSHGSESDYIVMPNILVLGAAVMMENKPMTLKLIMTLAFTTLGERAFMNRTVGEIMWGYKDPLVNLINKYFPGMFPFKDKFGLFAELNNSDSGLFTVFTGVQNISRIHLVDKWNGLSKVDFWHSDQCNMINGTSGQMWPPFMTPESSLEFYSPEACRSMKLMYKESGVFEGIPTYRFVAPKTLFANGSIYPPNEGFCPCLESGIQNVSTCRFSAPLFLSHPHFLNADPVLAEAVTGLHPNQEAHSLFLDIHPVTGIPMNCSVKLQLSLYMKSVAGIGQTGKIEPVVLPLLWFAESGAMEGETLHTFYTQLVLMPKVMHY
Assay: as above
Format: binding

Kd [nM]	Structure (SMILES)
2040 ± 40	CC1=C[C@H](O)CC(C)(C)[C@H]1/C=C/C(C)=C/C=C/C(C)=C/C=C/C=C(C)/C=C/C=C(C)/C=C/C1=C(C)C[C@@H](O)CC1(C)C [lutein]
1600 ± 100	CC1=C(/C=C/C(C)=C/C=C/C(C)=C/C=C/C=C(C)/C=C/C=C(C)/C=C/C2=C(C)C[C@@H](O)CC2(C)C)C(C)(C)C[C@H](O)C1 [zeaxanthin]
3100 ± 200	CC1=C(/C=C/C(C)=C/C=C/C(C)=C/C=C/C=C(C)/C=C/C=C(C)/C=C/C2=C(C)C[C@H](O)CC2(C)C)C(C)(C)C[C@H](O)C1 [meso-zeaxanthin]

Target: CD36 (Cluster determinant 36) (Homo sapiens, UniProt P16671)
Sequence (P16671 30-439 limits assumed): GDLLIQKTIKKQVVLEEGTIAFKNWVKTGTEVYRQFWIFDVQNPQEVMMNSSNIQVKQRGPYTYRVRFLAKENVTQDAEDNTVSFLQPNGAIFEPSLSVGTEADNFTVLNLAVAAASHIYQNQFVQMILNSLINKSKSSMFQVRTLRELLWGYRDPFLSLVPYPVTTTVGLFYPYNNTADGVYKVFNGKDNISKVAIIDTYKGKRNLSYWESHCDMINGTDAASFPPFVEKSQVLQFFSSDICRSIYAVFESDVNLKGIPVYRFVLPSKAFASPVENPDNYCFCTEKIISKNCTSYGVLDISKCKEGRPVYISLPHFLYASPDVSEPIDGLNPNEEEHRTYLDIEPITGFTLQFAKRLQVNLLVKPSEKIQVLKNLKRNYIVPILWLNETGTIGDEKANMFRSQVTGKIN
Assay: as above
Format: binding

Kd [nM]	Structure (SMILES)
730 ± 6	CC1=C[C@H](O)CC(C)(C)[C@H]1/C=C/C(C)=C/C=C/C(C)=C/C=C/C=C(C)/C=C/C=C(C)/C=C/C1=C(C)C[C@@H](O)CC1(C)C [lutein]
920 ± 7	CC1=C(/C=C/C(C)=C/C=C/C(C)=C/C=C/C=C(C)/C=C/C=C(C)/C=C/C2=C(C)C[C@@H](O)CC2(C)C)C(C)(C)C[C@H](O)C1 [zeaxanthin]
1660 ± 10	CC1=C(/C=C/C(C)=C/C=C/C(C)=C/C=C/C=C(C)/C=C/C=C(C)/C=C/C2=C(C)C[C@H](O)CC2(C)C)C(C)(C)C[C@H](O)C1 [meso-zeaxanthin]
